In patent US10537104B2, “Insecticide mixtures comprising loline alkaloids” (SYNGENTA PARTICIPATIONS AG, priority 2016, dated 2020):

What was measured:
Myzus persicae = assay: Tests against Myzus persicae: sprayed sunflower leaf discs, mortality; assay type: in vivo; conditions: 6 days after infestation
Source text: (§1) A synergistic effect exists whenever the action of an active ingredient combination is greater than the sum of the actions of the individual components. The action to be expected E for a given active ingredient combination obeys the so-called COLBY formula and can be calculated as follows (COLBY, S. R. “Calculating synergistic and antagonistic responses of herbicide combination”. Weeds, Vol. 15, pages 20-22 1967):
(§2) According to Colby, the expected (additive) action of active ingredients A+B using p+q ppm of active ingredient is
(§3) If the action actually observed O is greater than the expected action E, then the action of the combination is super-additive, i.e. there is a synergistic effect. In mathematical terms, synergism corresponds to a positive value for the difference of (O-E). In the case of purely complementary addition of activities (expected activity), said difference (O-E) is zero. A negative value of said difference (O-E) signals a loss of activity compared to the expected activity.
Component (A1) is a mixture of NAL, NFL and NANL in a weight ratio of about approximately 1:4:2. Stock solutions of thiamethoxam and flonicamid were prepared respectively by dissolving the technical active ingredient in DMSO. The aqueous test solutions were prepared by mixing together the appropriate stock solutions to the desired concentrations.
Tests Against Myzus persicae
Sunflower leaf discs were placed on agar in a 24-well microtiter plate and sprayed with aqueous test solutions prepared from DMSO stock solutions. After drying, the leaf discs were infested with an aphid population of mixed ages. The samples were assessed for mortality 6 days after infestation.

Thrips tabaci = assay: Tests against Thrips tabaci: sprayed sunflower leaf discs, mortality; assay type: in vivo; conditions: 6 days after infestation
Source text: as §1, §2, §3
Component (A1) is a mixture of NAL, NFL and NANL in a weight ratio of about approximately 1:4:2. […]
Sunflower leaf discs were placed on agar in 24-well microtiter plates and sprayed with aqueous test solutions prepared from DMSO stock solutions. […] The samples were assessed for mortality 6 days after infestation.

SMILES	% Mortality Measured (Myzus persicae; flonicamid 3.125 ppm alone) [%]	% Mortality Measured (Myzus persicae; flonicamid 6.25 ppm alone) [%]	% Mortality Measured (Myzus persicae; flonicamid 12.5 ppm alone) [%]	% Mortality Measured (Thrips tabaci; flonicamid 100 ppm alone) [%]	% Mortality Measured (Thrips tabaci; flonicamid 200 ppm alone) [%]	mortality at 0.4 ppm (Myzus persicae; Myzus persicae, foliar, 144 h, thiamethoxam 0.4 ppm alone, read-out: % Mortality Measured) [%]	mortality at 0.8 ppm (Myzus persicae; Myzus persicae, foliar, 144 h, thiamethoxam 0.8 ppm alone, read-out: % Mortality Measured) [%]	mortality at 1.6 ppm (Myzus persicae; Myzus persicae, foliar, 144 h, thiamethoxam 1.6 ppm alone, read-out: % Mortality Measured) [%]
N#CCNC(=O)c1cnccc1C(F)(F)F [Flonicamid, flonicamid]	0	65	90	0	0	–	–	–
CN1COCN(Cc2cnc(Cl)s2)/C1=N\[N+](=O)[O-] [Thiamethoxam, thiamethoxam]	–	–	–	–	–	0	0	45
